{"source": "patent US11980633B2", "about": "“Method for treating cancer using a combination of DNA-damaging agents and DNA-PK inhibitors” (Vertex Pharmaceuticals Incorporated, priority 2016, dated 2024)", "key": {"[1]": {"system": "primary human tumors (NSCLC, pancreatic, gastric, esophageal)", "test": "TCA: Compound B-1 with bleomycin, primary tumors", "assay_type": "cell-based", "design": "Average Bliss score: scale not given here", "method": "(§1) In both studies, cell viability was assessed after 6 days in culture. Statistical analysis of the combination matrix was performed to assess whether synergy, additivity, or antagonism of the combination treatments were observed.\n(§2) Materials: Primary patient samples (See Tables 16 and 17, below) were excised from mice when they reached 500 mg to 1000 mg in size and processed immediately, or after overnight shipment. Tumors were serially passaged by subcutaneous implantation of 50 mg to 150 mg fragments into the flanks of immunocompromised (nude) mice. Tumors were used within the first 5 or 7 passages.\n(§3) Tumor Chemosensitivity Assay (TCA): Primary tumor samples were grown and serially passaged in immunocompromised mice. Tumors were mechanically dissociated into small fragments (1 mm to 2 mm) with scalpels in phosphate buffered saline (PBS or RPMI) and centrifuged at 200×g for 5 minutes at room temperature in 50 mL centrifuge tubes. Samples were resuspended in 10 mL of cell dissociation reagent and enzymatically digested with mechanical agitation for 1 to 3 hours at 37° C., 5% CO2 to a single cell suspension. Ten mL of complete RPMI-1640 media was added to the cell mixture and pipetted up and down 4 to 5 times. The mixture was then passed through a 70 μm or 100 μm mesh strainer to remove undigested tumor. The filtrate was then centrifuged 200×g for 5 minutes at room temperature and resuspended in 20 mL complete RPMI-1640. This cell suspension was slowly layered onto 20 mL of room temperature Histopaque and centrifuged at 400×g for 15 minutes at room temperature without a brake. The interface was transferred to a new 50 mL centrifuge tube and 15 mL of complete RPMI-1640 was added. This suspension was centrifuged at 200×g at room temperature, and the resulting pellet was resuspended in 10 mL of complete PC-1 media, except for pancreatic tumors in which case Pancreatic Medium was used. Cells were diluted in Trypan blue, and viable cells that excluded the dye were counted. Only the larger, tumor cells were included in the cell count. Cells were diluted in complete PC-1 or Pancreatic media, as appropriate for the cells, and were plated at 15,000 to 20,000 cells per well in 100-135 μL in ultra-low attachment U-bottom plates.\n(§4) Compound Addition: For these studies, a 10 mM stock of the DNA-PK inhibitor (Compound B-1 or Compound B-2) was made in DMSO and used to add to cells from most tumors with HP D300 Digital Dispenser (Tecan US, Morrisville, NC, USA), or diluted into the appropriate media (PC-1 or pancreatic media) as a 5-10× stock and added to cells (OVX001 and ENX001, 005). PC-1, pancreatic media, and chemotherapeutics were also added so that final well volume was 150 μL. Doxorubicin was made as DMSO stock of 1 or 10 mM and added to cells for most tumors with HP D300 Digital Dispenser, or diluted into PC-1 as 5-10× stock and added to cells (OVX001 and ENX001, 005). Cisplatin (cis-diammine platinum(II), dichloride) was prepared fresh to 10 mM in warm (60° C.) distilled water and diluted in PC-1 as a 5-10× stock. […] Different starting concentrations, dose ranges, and number of doses were used for each experiment based on the response data available at the time.\n(§5) For bleomycin experiments, combinations with Compound B-1 at all concentrations were run in triplicate. A 6×3 matrix was designed on one plate, consisting of a 2-point concentration range of 0.73 μM and 2.2 μM Compound B-1 plus no treatment control, in 3 columns each of 6 wells. Bleomycin (plus ‘no treatment’ control) was added to 9 wells in rows of this plate. Similar 6×3 matrices were set up for additional agents with different starting concentrations for compound dilutions. For cisplatin experiments the starting concentration was 30 μM which was diluted 1:3. […] For doxorubicin hydrochloride experiments the starting concentration was 5 μM doxorubicin which was diluted 1:3. For gemcitabine experiments the starting concentration was 5 μM gemcitabine which was diluted 1:3. […]"}, "[2]": {"system": "primary human tumors (esophageal, gastric)", "test": "TCA: Compound B-1 with paclitaxel, primary tumors", "assay_type": "cell-based", "method": "as §1, §2, §3, §4, §5"}}}
{"molecule": "CNC(=O)c1ccnc2c([C@H](C)CNc3cc(-c4cnc(C)nc4)ncn3)cccc12", "note": "[Compound B-1]", "values": [{"measurement": "number of tumors that showed synergy or additivity", "setting": "[1]; of twenty tumors assessed", "value": 20, "unit": "tumors"}, {"measurement": "tumors that showed strong synergy", "setting": "[1]; six of 20 tumors", "value": 30, "unit": "%"}, {"measurement": "Average Bliss score", "setting": "[1]; tumor ESX005, Esophageal", "value": 6}, {"measurement": "Synergy/Additivity/Antagonism", "setting": "[1]; tumor ESX005, Esophageal", "value": "Synergistic (greater than 5 are considered synergistic)"}, {"measurement": "Average Bliss score", "setting": "[1]; tumor ESX008, Esophageal", "value": 7}, {"measurement": "Synergy/Additivity/Antagonism", "setting": "[1]; tumor ESX008, Esophageal", "value": "Synergistic (greater than 5 are considered synergistic)"}, {"measurement": "Average Bliss score", "setting": "[1]; tumor GAX001, Gastric", "value": 14}, {"measurement": "Synergy/Additivity/Antagonism", "setting": "[1]; tumor GAX001, Gastric", "value": "Strongly Synergistic (greater than 10 are considered strongly synergistic)"}, {"measurement": "Average Bliss score", "setting": "[1]; tumor GAX007, Gastric", "value": 5}, {"measurement": "Synergy/Additivity/Antagonism", "setting": "[1]; tumor GAX007, Gastric", "value": "Synergistic (greater than 5 are considered synergistic)"}, {"measurement": "Average Bliss score", "setting": "[1]; tumor GAX027, Gastric", "value": 11}, {"measurement": "Synergy/Additivity/Antagonism", "setting": "[1]; tumor GAX027, Gastric", "value": "Strongly Synergistic (greater than 10 are considered strongly synergistic)"}, {"measurement": "Average Bliss score", "setting": "[1]; tumor OD25982, Lung (NSCLC)", "value": 4}, {"measurement": "Synergy/Additivity/Antagonism", "setting": "[1]; tumor OD25982, Lung (NSCLC)", "value": "Additive (Values between 5 and −5 are considered additive)"}, {"measurement": "Average Bliss score", "setting": "[1]; tumor OD26131, Lung (NSCLC)", "value": 9}, {"measurement": "Synergy/Additivity/Antagonism", "setting": "[1]; tumor OD26131, Lung (NSCLC)", "value": "Synergistic (greater than 5 are considered synergistic)"}, {"measurement": "Average Bliss score", "setting": "[1]; tumor OD26749, Lung (NSCLC)", "value": 10}, {"measurement": "Synergy/Additivity/Antagonism", "setting": "[1]; tumor OD26749, Lung (NSCLC)", "value": "Strongly Synergistic (greater than 10 are considered strongly synergistic)"}, {"measurement": "Average Bliss score", "setting": "[1]; tumor OD29498, Lung (NSCLC)", "value": 3}, {"measurement": "Synergy/Additivity/Antagonism", "setting": "[1]; tumor OD29498, Lung (NSCLC)", "value": "Additive (Values between 5 and −5 are considered additive)"}, {"measurement": "Average Bliss score", "setting": "[1]; tumor OD33117, Lung (NSCLC)", "value": 9}, {"measurement": "Synergy/Additivity/Antagonism", "setting": "[1]; tumor OD33117, Lung (NSCLC)", "value": "Synergistic (greater than 5 are considered synergistic)"}, {"measurement": "Average Bliss score", "setting": "[1]; tumor OD33966, Lung (NSCLC)", "value": 3}, {"measurement": "Synergy/Additivity/Antagonism", "setting": "[1]; tumor OD33966, Lung (NSCLC)", "value": "Additive (Values between 5 and −5 are considered additive)"}, {"measurement": "Average Bliss score", "setting": "[1]; tumor OD36088, Lung (NSCLC)", "value": 14}, {"measurement": "Synergy/Additivity/Antagonism", "setting": "[1]; tumor OD36088, Lung (NSCLC)", "value": "Strongly Synergistic (greater than 10 are considered strongly synergistic)"}, {"measurement": "Average Bliss score", "setting": "[1]; tumor P110323, Pancreatic", "value": 10}, {"measurement": "Synergy/Additivity/Antagonism", "setting": "[1]; tumor P110323, Pancreatic", "value": "Strongly Synergistic (greater than 10 are considered strongly synergistic)"}, {"measurement": "Average Bliss score", "setting": "[1]; tumor P110325, Pancreatic", "value": 0}, {"measurement": "Synergy/Additivity/Antagonism", "setting": "[1]; tumor P110325, Pancreatic", "value": "Additive (Values between 5 and −5 are considered additive)"}, {"measurement": "Average Bliss score", "setting": "[1]; tumor P110408, Pancreatic", "value": 7}, {"measurement": "Synergy/Additivity/Antagonism", "setting": "[1]; tumor P110408, Pancreatic", "value": "Synergistic (greater than 5 are considered synergistic)"}, {"measurement": "Average Bliss score", "setting": "[1]; tumor P110413, Pancreatic", "value": 6}, {"measurement": "Synergy/Additivity/Antagonism", "setting": "[1]; tumor P110413, Pancreatic", "value": "Synergistic (greater than 5 are considered synergistic)"}, {"measurement": "Average Bliss score", "setting": "[1]; tumor P110504, Pancreatic", "value": 8}, {"measurement": "Synergy/Additivity/Antagonism", "setting": "[1]; tumor P110504, Pancreatic", "value": "Synergistic (greater than 5 are considered synergistic)"}, {"measurement": "Average Bliss score", "setting": "[1]; tumor P110603, Pancreatic", "value": 14}, {"measurement": "Synergy/Additivity/Antagonism", "setting": "[1]; tumor P110603, Pancreatic", "value": "Strongly Synergistic (greater than 10 are considered strongly synergistic)"}, {"measurement": "Average Bliss score", "setting": "[1]; tumor TS110310, Lung (NSCLC)", "value": 2}, {"measurement": "Synergy/Additivity/Antagonism", "setting": "[1]; tumor TS110310, Lung (NSCLC)", "value": "Additive (Values between 5 and −5 are considered additive)"}, {"measurement": "Average Bliss score", "setting": "[1]; tumor YAS111611, Lung (NSCLC)", "value": 6}, {"measurement": "Synergy/Additivity/Antagonism", "setting": "[1]; tumor YAS111611, Lung (NSCLC)", "value": "Synergistic (greater than 5 are considered synergistic)"}, {"measurement": "tumors that showed additivity", "setting": "[2]; four of 5 tumors", "value": 80, "unit": "%"}, {"measurement": "tumors that showed antagonism", "setting": "[2]; one of 5 tumors", "value": 20, "unit": "%"}, {"measurement": "Average Bliss score", "setting": "[2]; tumor ESX005, Esophageal", "value": "−3"}, {"measurement": "Synergy/Additivity/Antagonism", "setting": "[2]; tumor ESX005, Esophageal", "value": "Additive (Values between 5 and −5 are considered additive)"}, {"measurement": "Average Bliss score", "setting": "[2]; tumor ESX008, Esophageal", "value": "−5"}, {"measurement": "Synergy/Additivity/Antagonism", "setting": "[2]; tumor ESX008, Esophageal", "value": "Antagonistic (less than −5 are considered antagonistic)"}, {"measurement": "Average Bliss score", "setting": "[2]; tumor GAX001, Gastric", "value": "−1"}, {"measurement": "Synergy/Additivity/Antagonism", "setting": "[2]; tumor GAX001, Gastric", "value": "Additive (Values between 5 and −5 are considered additive)"}, {"measurement": "Average Bliss score", "setting": "[2]; tumor GAX007, Gastric", "value": "−4"}, {"measurement": "Synergy/Additivity/Antagonism", "setting": "[2]; tumor GAX007, Gastric", "value": "Additive (Values between 5 and −5 are considered additive)"}, {"measurement": "Average Bliss score", "setting": "[2]; tumor GAX027, Gastric", "value": 1}, {"measurement": "Synergy/Additivity/Antagonism", "setting": "[2]; tumor GAX027, Gastric", "value": "Additive (Values between 5 and −5 are considered additive)"}]}
